Assay results: US12077503B2, “Substituted cyclic amides and their use as herbicides” (FMC CORPORATION, priority 2015, dated 2024)

Assays:
Format in all cases: in vivo
Kochia (Kochia scoparia) [1] = test: Test A preemergence; conditions: Bassia scoparia, pre-emergence, 240 h, 0 to 100 scale where 0 is no effect and 100 is complete control, read-out: Kochia plant response rating
Outline: (§1)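 Visual injury, scored on a 0–100 scale relative to untreated controls, was recorded about 10 d after application. Treatments were a preemergence soil spray over planted seeds or a postemergence spray on plants at the one- to two-leaf stage, 2 to 10 cm tall, all in loam soil–sand blend in the greenhouse.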

[2] = system: barnyardgrass (Echinochloa crus-galli); test: Test A preemergence; conditions: Echinochloa crus-galli, pre-emergence, 240 h, 0 to 100 scale where 0 is no effect and 100 is complete control, read-out: Barnyardgrass plant response rating
Outline: as §1

[3] = system: giant foxtail (Setaria faberii); test: Test A preemergence; conditions: Setaria faberi, pre-emergence, 240 h, 0 to 100 scale where 0 is no effect and 100 is complete control, read-out: Foxtail, Giant plant response rating
Outline: as §1

[4] = system: pigweed (Amaranthus retroflexus); test: Test A preemergence; conditions: Amaranthus retroflexus, pre-emergence, 240 h, 0 to 100 scale where 0 is no effect and 100 is complete control, read-out: Pigweed plant response rating
[5] = system: ragweed (common ragweed, Ambrosia elatior); test: Test A preemergence; conditions: Ambrosia artemisiifolia, pre-emergence, 240 h, 0 to 100 scale where 0 is no effect and 100 is complete control, read-out: Ragweed plant response rating
Outline: as §1

[6] = system: ryegrass, Italian (Italian ryegrass, Lolium multiflorum); test: Test A preemergence; conditions: Lolium multiflorum, pre-emergence, 240 h, 0 to 100 scale where 0 is no effect and 100 is complete control, read-out: Ryegrass, Italian plant response rating
Outline: as §1

[7] = system: Galium (catchweed bedstraw, Galium aparine); test: Test A postemergence; conditions: Galium, post-emergence, 240 h
Outline: as §1

Kochia (Kochia scoparia) [8] = test: Test A postemergence; conditions: Bassia scoparia, post-emergence, 240 h
Outline: as §1

[9] = system: barnyardgrass (Echinochloa crus-galli); test: Test A postemergence; conditions: Echinochloa crus-galli, post-emergence, 240 h
Outline: as §1

[10] = system: blackgrass (Alopecurus myosuroides); test: Test A postemergence; conditions: Alopecurus myosuroides, post-emergence, 240 h
Outline: as §1

corn (Zea mays) = test: Test A postemergence; conditions: Zea mays, post-emergence, 240 h
Outline: as §1

[11] = system: giant foxtail (Setaria faberii); test: Test A postemergence; conditions: Setaria faberi, post-emergence, 240 h
Outline: as §1

[12] = system: pigweed (Amaranthus retroflexus); test: Test A postemergence; conditions: Amaranthus retroflexus, post-emergence, 240 h
Outline: as §1

[13] = system: ragweed (common ragweed, Ambrosia elatior); test: Test A postemergence; conditions: Ambrosia artemisiifolia, post-emergence, 240 h
Outline: as §1

[14] = system: ryegrass, Italian (Italian ryegrass, Lolium multiflorum); test: Test A postemergence; conditions: Lolium multiflorum, post-emergence, 240 h
Outline: as §1

[15] = system: wheat (Triticum aestivum); test: Test A postemergence; conditions: Triticum aestivum, post-emergence, 240 h
Outline: as §1

[16] = system: barnyardgrass (Echinochloa crus-galli); test: Test B flooded paddy test; conditions: Echinochloa crus-galli, 250 g ai/ha, Flood; 0 to 100 scale where 0 is no effect and 100 is complete control; read-out: Barnyardgrass plant response rating
Outline: (§2)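 Compound goes directly into floodwater once pots are flooded 3 cm above soil, targeting plants at two leaves; the water depth is then held for the test duration. Plants sit 13–15 d in a greenhouse and are rated visually, 100 denoting complete control.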

[17] = system: ducksalad (Heteranthera limosa); test: Test B flooded paddy test; conditions: Heteranthera limosa, 250 g ai/ha, Flood; 0 to 100 scale where 0 is no effect and 100 is complete control; read-out: Ducksalad plant response rating
Outline: as §2

rice (Oryra sativa) = test: Test B flooded paddy test; conditions: Oryza sativa, 250 g ai/ha, Flood; 0 to 100 scale where 0 is no effect and 100 is complete control; read-out: Rice plant response rating
Outline: as §2

[18] = system: sedge, umbrella (small-flower umbrella sedge, Cyperus difformis); test: Test B flooded paddy test; conditions: Cyperus difformis, 250 g ai/ha, Flood; 0 to 100 scale where 0 is no effect and 100 is complete control; read-out: Sedge, Umbrella plant response rating
Outline: as §2

[19] = 125 g ai/ha, preemergence, approx. 10 d

C=C(C)c1ccc([C@H]2CN(C)C(=O)[C@@H]2C(=O)Nc2cccc(F)c2F)cc1 [Compound 1149]
pest or weed control at 31 g/ha (Kochia (Kochia scoparia) [1]; 31 g ai/ha, Preemergence): 0%
pest or weed control at 125 g/ha (Kochia (Kochia scoparia) [1]; [19]): 20%
pest or weed control at 31 g/ha ([2]; 31 g ai/ha, Preemergence): 70%
pest or weed control at 125 g/ha [2, 19]: 90%
pest or weed control at 31 g/ha ([3]; 31 g ai/ha, Preemergence): 80%
pest or weed control at 125 g/ha [3, 19]: 90%
pest or weed control at 31 g/ha ([4]; 31 g ai/ha, Preemergence): 0%
pest or weed control at 125 g/ha [4, 19]: 40%
pest or weed control at 31 g/ha ([5]; 31 g ai/ha, Preemergence): 0%
pest or weed control at 125 g/ha [5, 19]: 0%
pest or weed control at 31 g/ha ([6]; 31 g ai/ha, Preemergence): 0%
pest or weed control at 125 g/ha [6, 19]: 20%
pest or weed control at 125 g/ha ([7]; 125 g ai/ha, postemergence, visual injury on 0 to 100 scale (0 no effect, 100 complete control), approx. 10 d, read-out: Galium plant response rating): 50%
pest or weed control at 31 g/ha ([7]; Postemergence, 31 g ai/ha, visual injury after approx. 10 d, 0 to 100 scale, 0 no effect, 100 complete control, read-out: Plant response rating, Galium): 20%
pest or weed control at 125 g/ha (Kochia (Kochia scoparia) [8]; 125 g ai/ha, postemergence, visual injury on 0 to 100 scale (0 no effect, 100 complete control), approx. 10 d, read-out: Kochia plant response rating): 30%
pest or weed control at 31 g/ha (Kochia (Kochia scoparia) [8]; Postemergence, 31 g ai/ha, visual injury after approx. 10 d, 0 to 100 scale, 0 no effect, 100 complete control, read-out: Plant response rating, Kochia): 0%
pest or weed control at 125 g/ha ([9]; 125 g ai/ha, postemergence, visual injury on 0 to 100 scale (0 no effect, 100 complete control), approx. 10 d, read-out: Barnyardgrass plant response rating): 90%
pest or weed control at 31 g/ha ([9]; Postemergence, 31 g ai/ha, visual injury after approx. 10 d, 0 to 100 scale, 0 no effect, 100 complete control, read-out: Plant response rating, Barnyardgrass): 50%
pest or weed control at 125 g/ha ([10]; 125 g ai/ha, postemergence, visual injury on 0 to 100 scale (0 no effect, 100 complete control), approx. 10 d, read-out: Blackgrass plant response rating): 0%
pest or weed control at 31 g/ha ([10]; Postemergence, 31 g ai/ha, visual injury after approx. 10 d, 0 to 100 scale, 0 no effect, 100 complete control, read-out: Plant response rating, Blackgrass): 0%
plant injury at 125 g/ha (corn (Zea mays); 125 g ai/ha, postemergence, visual injury on 0 to 100 scale (0 no effect, 100 complete control), approx. 10 d, read-out: Corn plant response rating): 0%
Corn plant response rating (crop injury, 0 = no effect, 100 = complete kill) at 31 g/ha (corn (Zea mays); Postemergence, 31 g ai/ha, visual injury after approx. 10 d, 0 to 100 scale, 0 no effect, 100 complete control): 0%
pest or weed control at 125 g/ha ([11]; 125 g ai/ha, postemergence, visual injury on 0 to 100 scale (0 no effect, 100 complete control), approx. 10 d, read-out: Foxtail, Giant plant response rating): 80%
pest or weed control at 31 g/ha ([11]; Postemergence, 31 g ai/ha, visual injury after approx. 10 d, 0 to 100 scale, 0 no effect, 100 complete control, read-out: Plant response rating, Foxtail, Giant): 40%
pest or weed control at 125 g/ha ([12]; 125 g ai/ha, postemergence, visual injury vs untreated controls after approx. 10 d, 0 = no effect, 100 = complete control, read-out: Pigweed plant response rating (0 to 100 scale)): 0%
pest or weed control at 31 g/ha ([12]; Postemergence, 31 g ai/ha, visual injury after approx. 10 d, 0 to 100 scale, 0 no effect, 100 complete control, read-out: Plant response rating, Pigweed): 0%
pest or weed control at 125 g/ha ([13]; 125 g ai/ha, postemergence, visual injury vs untreated controls after approx. 10 d, 0 = no effect, 100 = complete control, read-out: Ragweed plant response rating (0 to 100 scale)): 0%
pest or weed control at 31 g/ha ([13]; Postemergence, 31 g ai/ha, visual injury after approx. 10 d, 0 to 100 scale, 0 no effect, 100 complete control, read-out: Plant response rating, Ragweed): 0%
pest or weed control at 125 g/ha ([14]; 125 g ai/ha, postemergence, visual injury vs untreated controls after approx. 10 d, 0 = no effect, 100 = complete control, read-out: Ryegrass, Italian plant response rating (0 to 100 scale)): 20%
pest or weed control at 31 g/ha ([14]; Postemergence, 31 g ai/ha, visual injury after approx. 10 d, 0 to 100 scale, 0 no effect, 100 complete control, read-out: Plant response rating, Ryegrass, Italian): 0%
plant injury at 125 g/ha ([15]; 125 g ai/ha, postemergence, visual injury vs untreated controls after approx. 10 d, 0 = no effect, 100 = complete control, read-out: Wheat plant response rating (0 to 100 scale)): 0%
plant injury at 31 g/ha ([15]; Postemergence, 31 g ai/ha, visual injury after approx. 10 d, 0 to 100 scale, 0 no effect, 100 complete control, read-out: Plant response rating, Wheat): 0%
pest or weed control at 250 g/ha [16]: 45%
pest or weed control at 250 g/ha [17]: 75%
pest or weed control at 250 g/ha (rice (Oryra sativa)): 30%
pest or weed control at 250 g/ha [18]: 0%
